Measurements reported in US5491151A, “Antitumor treatment method” (Kabushiki Kaisha Hayashibara Seibutsu Kagaku Kenkyujo, priority 1989, dated 1996).

What was measured:
macrophage = assay: Activation of macrophage by cyanine dye (adherent ascites cells of treated mice cultured with Meth A ascitic tumor cells, 3H-thymidine incorporation); type: cell-based, BALB/c mice; conditions: 50 ng/0.2 ml/animal intraperitoneal to mice, cells collected two days later
Protocol: Two days after the administration, the ascites of the mice were extracted, and the cells which adhered onto plastic Petri dish were collected.
Control group was intraperitoneally administered with 0.2 ml saline.
Thereafter, the incorporation of ^3 H-thymidine in the tumor cell was determined by conventional method, and the growth inhibitory rate for tumor (%) was calculated with the following equation.

[1] = system: Meth A ascitic tumor cell; assay: Antitumor effect on tumor-bearing mouse (life-span increasing effect, Meth A ascitic tumor); type: in vivo, BALB/c mice; conditions: for Mean survival days: i.p. twice a week over 40 days, * significant to control at 5% or lower; for Increase in life-span (T/C %) / Survivals after 40 days: i.p.; for Increase in life-span (T/C %): control = 100; for Survivals after 40 days: group of seven mice
Protocol: Compounds No.1, 7 and 8 in Table I were evaluated for their antitumor activity using as the criterion the life-span increasing effect on tumor-bearing mice which had received the transplantation of Meth A ascitic tumor cell.
More particularly, 8 week-old male BALB/c mice were intraperitoneally transplanted with 1×10^5 cells/mouse of Meth A cell. Ten days after the transplantation, a group of seven mice with a successful transplantation were intraperitoneally administered with either Compound No.1, 7 or 8 in Table I twice a week over a period of 40 days while monitoring the mice.
Control group was intraperitoneally administered with 0.2 ml saline in accordance with the same administration schedule.
The rate of increase in life-span (T/C %) under the above conditions was calculated from the mean survival days found for the test group (T) and control group (C). [formula]

MC-1 cell = assay: Antitumor effect by growth inhibition of tumor (MC-1, with or without light-irradiation); type: in vivo, C57BL/6 mice; conditions: for Mean wet weight of tumor: 27th day, * significant at 5% or lower; for Rate of survival (%): 35th day
Protocol: Compounds No.1, 7 and 8 in Table I were evaluated for their antitumor activity using as the criterion the growth inhibitory effect on MC-1 cell, a methylcholanthrene-induced syngenic tumor.
Eight week-old female C57BL/6 mice were subcutaneously transplanted in their dorsum area with 1×10^5 cells/animal of MC-1 cell. Five days after the transplantation, a group of seven mice with a successful transplantation were subcutaneously administered with either Compound No.1, 7 or 8 in Table I twice a week over a period of 25 days while monitoring the mice.
One another group of mice were light-irradiated with 100 W medical infrared lamp (100 V) placed about one meter in apart immediately after every administration of either Compound No.1, 7 or 8.
Control group was subcutaneously administered with 0.2 ml saline in accordance with the same administration schedule.
On the 27th day after the transplantation, the wet weight of tumor was determined by the method in Y. Shimosato and N. Tamaoki, Human Cancer and Nude mice, pp. 321-323, published by Ishiyaku Publishers Inc., Tokyo, Japan (1982), as well as monitoring the rate (%) of survivals on the 35th day.

Meth A ascitic tumor = assay: Synergistic effect by the combination with hyperthermia (growth inhibition of Meth A tumor); type: in vivo, BALB/c mice; conditions: 20 ng/0.1 ml/animal s.c. twice a week; for Mean wet weight of tumor: 40th day; for Growth inhibitory rate for tumor (%): control = 100
Protocol: More particularly, 6 week-old BALB/c mice were subcutaneously transplanted in their femoral area with 2×10^5 cells/animal of Meth A cell. […] Immediately after every administration, the tumoral sites of the mice were soaked in about 42° C. water bath for about 60 minutes. On the 40th day after the transplantation, the mean wet weight of tumor was determined by the method in Experiment 2-2.
Separately, one of other groups was administered with either cyanine dye, and determined for its mean wet weight of tumor, while one another group was first administered with saline, then subjected to hyperthermia, followed by determining the mean wet weight of tumor.
Control group was subcutaneously injected with 0.1 ml saline in the femoral area.
The mean wet weights of tumor were put into the following equation to calculate the growth inhibitory rate for tumor (%) which was then used to evaluate any synergistic effect by the combination of cyanine dye and hyperthermia. [formula]

Acute toxicity (LD50) = type: in vivo; conditions: mouse, in vivo, 7 days
Protocol: (§1) Either of Compounds No.1-8 in Table I was dissolved or suspended in saline containing 5% gum arabic, and a group of ddy mice, about 10-20 g each, received an intraperitoneal or oral administration of the resultant mixture occasionally through a stomach tube, followed by monitoring and counting dead mice for an additional 7 days to determine respective LD50 value in accordance with the Van der Waerden's method.

ddy mice = assay: Acute toxicity (LD50); type: in vivo; conditions: 7 days
Protocol: as §1

[2] = 0.5 ng/0.2 ml/animal s.c., combined with light-irradiation
[3] = 0.5 ng/0.2 ml/animal s.c., no light-irradiation
[4] = 5 ng/0.2 ml/animal s.c., combined with light-irradiation
[5] = 5 ng/0.2 ml/animal s.c., no light-irradiation
[6] = 50 ng/0.2 ml/animal s.c., combined with light-irradiation
[7] = 50 ng/0.2 ml/animal s.c., no light-irradiation
[8] = combined with hyperthermia (about 42° C., 60 minutes)
[9] = ip, intraperitoneal administration
[10] = intraperitoneal administration, 10080 min

Row | Structure (SMILES) | Growth inhibitory rate (%) (macrophage) | Mean survival days ([1]; 0.5 ng/0.2 ml/animal) [days] | Increase in life-span (T/C %) ([1]; 0.5 ng/0.2 ml/animal) [%] | Survivals after 40 days ([1]; 0.5 ng/0.2 ml/animal) | Mean survival days ([1]; 5 ng/0.2 ml/animal) [days] | Increase in life-span (T/C %) ([1]; 5 ng/0.2 ml/animal) [%] | Survivals after 40 days ([1]; 5 ng/0.2 ml/animal) | Mean survival days ([1]; 50 ng/0.2 ml/animal) [days] | Increase in life-span (T/C %) ([1]; 50 ng/0.2 ml/animal) [%] | Survivals after 40 days ([1]; 50 ng/0.2 ml/animal) | Mean wet weight of tumor (MC-1 cell; [2]) [g] | Rate of survival (%) (MC-1 cell; [2]) | Mean wet weight of tumor (MC-1 cell; [3]) [g] | Rate of survival (%) (MC-1 cell; [3]) | Mean wet weight of tumor (MC-1 cell; [4]) [g] | Rate of survival (%) (MC-1 cell; [4]) | Mean wet weight of tumor (MC-1 cell; [5]) [g] | Rate of survival (%) (MC-1 cell; [5]) | LD50 at 168 h (Acute toxicity (LD50); [9]) [mg/kg] | LD50 at 168 h (Acute toxicity (LD50); po, oral administration) [mg/kg] | also measured
1 | CCCCN1C=CC(=CC=C(C=Cc2cc[n+](CCCC)c3ccccc23)c2cc[n+](CCCC)c3ccccc23)c2ccccc21 | 37.6 | 31.1 ± 4.2 | 105 | 0 | 42.9 ± 6.0 | 145 | 5 | 39.9 ± 5.4 | 135 | 4 | 3.3 ± 0.6 | 85.7 | 4.7 ± 1.0 | 71.4 | 1.9 ± 0.8 | 100 | 3.5 ± 0.8 | 100 | 84 | ≥ 4000 | Mean wet weight of tumor (MC-1 cell; [6]): 2.6 ± 0.5 g; Rate of survival (%) (MC-1 cell; [6]): 100%; Mean wet weight of tumor (MC-1 cell; [7]): 4.0 ± 0.4 g; Rate of survival (%) (MC-1 cell; [7]): 85.7%; Mean wet weight of tumor (Meth A ascitic tumor; [8]): 0.62 ± 0.45 g; Growth inhibitory rate for tumor (%) (Meth A ascitic tumor; combined with hyperthermia): 12.6%; Mean wet weight of tumor (Meth A ascitic tumor; no hyperthermia): 3.35 ± 1.75 g; Growth inhibitory rate for tumor (%) (Meth A ascitic tumor; no hyperthermia): 68.2%
2 | CCN1C=CC(=CC=C(C=Cc2cc[n+](CC)c3ccccc23)c2cc[n+](CC)c3ccccc23)c2ccccc21 [Compound No.1, [bis-4-(ethylquinoline)][γ-4'-(1-ethylquinoline)] pentamethine cyanine diiodide] | 25.1 | 36.1 ± 4.3 | 122 | 2 | 48.9 ± 4.2 | 165 | 7 | 45.6 ± 4.2 | 154 | 6 | 2.8 ± 0.3 | 100 | 4.1 ± 0.5 | 85.7 | 0.8 ± 0.1 | 100 | 3.1 ± 0.4 | 100 | 34 | ≥ 4000 | Mean wet weight of tumor (MC-1 cell; [6]): 1.5 ± 0.3 g; Rate of survival (%) (MC-1 cell; [6]): 100%; Mean wet weight of tumor (MC-1 cell; [7]): 3.7 ± 0.2 g; Rate of survival (%) (MC-1 cell; [7]): 100%; Mean wet weight of tumor (Meth A ascitic tumor; [8]): 0.12 ± 0.15 g; Growth inhibitory rate for tumor (%) (Meth A ascitic tumor; combined with hyperthermia): 2.4%; Mean wet weight of tumor (Meth A ascitic tumor; no hyperthermia): 3.24 ± 1.45 g; Growth inhibitory rate for tumor (%) (Meth A ascitic tumor; no hyperthermia): 65.9%
3 | CN1C(=CC=C(C=Cc2sc3ccccc3[n+]2C)c2sc3ccccc3[n+]2C)Sc2ccccc21 [Compound No.8] | 27.3 | 34.4 ± 5.7 | 116 | 1 | 49.3 ± 5.6 | 167 | 7 | 43.7 ± 4.0 | 148 | 6 | 2.9 ± 0.7 | 100 | 3.6 ± 0.4 | 71.4 | 0.5 ± 0.5 | 100 | 2.9 ± 0.9 | 100 | 40 | ≥ 4000 | Mean wet weight of tumor (MC-1 cell; [6]): 1.2 ± 0.2 g; Rate of survival (%) (MC-1 cell; [6]): 100%; Mean wet weight of tumor (MC-1 cell; [7]): 3.5 ± 0.5 g; Rate of survival (%) (MC-1 cell; [7]): 85.7%; Mean wet weight of tumor (Meth A ascitic tumor; [8]): 0.90 ± 0.66 g; Growth inhibitory rate for tumor (%) (Meth A ascitic tumor; combined with hyperthermia): 18.3%; Mean wet weight of tumor (Meth A ascitic tumor; no hyperthermia): 3.40 ± 1.38 g; Growth inhibitory rate for tumor (%) (Meth A ascitic tumor; no hyperthermia): 69.2%
4 | CCN1C=CC(=CC=C(C=Cc2cc[n+](CC)c3ccccc23)c2cc[n+](CC)c3ccccc23)c2ccccc21 [compound 2] | 44.5 |  |  |  |  |  |  |  |  |  |  |  |  |  |  |  |  |  |  |  | LD50 (ddy mice; [10]): 30 mg/kg body weight; LD50 (ddy mice; oral administration): ≥ 4.0 g/kg body weight
5 | CCN1C=CC(=CC=C(C=Cc2cc[n+](CC)c3ccccc23)c2cc[n+](CC)c3ccccc23)c2ccccc21 [compound 3] | 32.3 |  |  |  |  |  |  |  |  |  |  |  |  |  |  |  |  |  |  |  | LD50 (ddy mice; [10]): 31 mg/kg body weight; LD50 (ddy mice; oral administration): ≥ 4.0 g/kg body weight
6 | CCN1C=CC(=CC=C(C=Cc2cc[n+](CC)c3ccccc23)c2cc[n+](CC)c3ccccc23)c2ccccc21 [compound 4] | 36.2 |  |  |  |  |  |  |  |  |  |  |  |  |  |  |  |  |  |  |  | LD50 (ddy mice; [10]): 37 mg/kg body weight; LD50 (ddy mice; oral administration): ≥ 4.0 g/kg body weight
7 | CN1C=CC(=CC=C(C=Cc2cc[n+](C)c3ccccc23)c2cc[n+](C)c3ccccc23)c2ccccc21 [compound 6] | 41.8 |  |  |  |  |  |  |  |  |  |  |  |  |  |  |  |  |  | 65 | ≥ 4000 | 
